For three compounds, EC50 results are on record in ChEMBL document CHEMBL2021779, “Inhibition of hepatitis C virus NS5A by fluoro-olefin based γ-turn mimetics” (Bioorg Med Chem Lett, 2012).

The structures appear in SMILES notation.

Experiment [1] concerns Hepatitis C virus. The experiment can be described thus: Antiviral activity against Hepatitis C virus genotype 1B by whole cell replicon assay. The format is functional, organism-based, Hepacivirus hominis. For orientation: Replicon systems follow genome replication, usually without infectious particles.
The subject of experiment [2] is Hepatitis C virus. The experiment can be described thus: Antiviral activity against Hepatitis C virus genotype 2A by whole cell replicon assay. The format is functional, organism-based, Hepacivirus hominis.
Experiment [3] relates to Hepatitis C virus subtype 1a. The experiment can be described thus: Antiviral activity against Hepatitis C virus genotype 1A by whole cell replicon assay.

Consider `COC(=O)N[C@H](C(=O)N1CCC[C@H]1c1ncc(-c2ccc(-c3ccc(-c4cnc([C@@H]5CCCN5C(=O)[C@@H](NC(=O)OC)C(C)C)[nH]4)cc3)cc2)[nH]1)C(C)C`, for which the results for the EC50 in the experiment on Hepatitis C virus [1] and in the experiment with Hepatitis C virus [2] were […] and 0.063 nM, respectively.
As for `COC(=O)N[C@H](/C(F)=C1\CCC[C@H]1c1ncc(-c2ccc(-c3ccc(-c4cnc([C@@H]5CCC/C5=C(/F)[C@@H](NC(=O)OC)C(C)C)[nH]4)cc3)cc2)[nH]1)C(C)C`, the values for the EC50 (in the experiment with Hepatitis C virus [1]; in the experiment with Hepatitis C virus [2]; in experiment [3]) were 0.079 nM, 167 nM and 189 nM, respectively.
For `COC(=O)N[C@H](/C(F)=C(\C)[C@@H](C)c1ncc(-c2ccc(-c3ccc(-c4cnc([C@H](C)/C(C)=C(\F)[C@@H](NC(=O)OC)C(C)C)[nH]4)cc3)cc2)[nH]1)C(C)C`, the EC50 with Hepatitis C virus [1] was found to be 27.3 nM; with Hepatitis C virus [2], 397 nM; in experiment [3] it was 659 nM.

A word on the EC50: it is the concentration that produces a half-maximal response. A low value points to higher potency in that assay.
